Assay results reported in PubChem BioAssay (NCI).
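GI50 marks 50% less growth. TGI: concentration producing complete growth inhibition.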

How the values were obtained:
Assay in all cases: NCI-60 cell line screen, 384-well format
SR leukemia = tested on: SR leukemia
HCT-116 colon = tested on: HCT-116 colon
UACC-62 melanoma = tested on: UACC-62 melanoma
SK-OV-3 ovarian = tested on: SK-OV-3 ovarian
SK-MEL-5 melanoma = tested on: SK-MEL-5 melanoma
OVCAR-3 ovarian = tested on: OVCAR-3 ovarian
UO-31 renal = tested on: UO-31 renal
SNB-75 CNS = tested on: SNB-75 CNS
NCI-H522 lung = tested on: NCI-H522 lung
EKVX NSCLC = tested on: EKVX NSCLC
NCI/ADR-RES ovarian = tested on: NCI/ADR-RES ovarian
SF-295 CNS = tested on: SF-295 CNS
MDA-MB-435 melanoma = tested on: MDA-MB-435 melanoma
RXF 393 renal = tested on: RXF 393 renal
SNB-19 CNS = tested on: SNB-19 CNS
NCI-H23 lung = tested on: NCI-H23 lung
KM12 colon = tested on: KM12 colon
TK-10 renal = tested on: TK-10 renal
T-47D breast = tested on: T-47D breast
DU-145 prostate = tested on: DU-145 prostate
MDA-MB-468 breast = tested on: MDA-MB-468 breast
A549 NSCLC = tested on: A549 NSCLC
RPMI-8226 leukemia = tested on: RPMI-8226 leukemia
ACHN renal = tested on: ACHN renal
SN12C renal = tested on: SN12C renal
OVCAR-8 ovarian = tested on: OVCAR-8 ovarian
CCRF-CEM leukemia = tested on: CCRF-CEM leukemia
M14 melanoma = tested on: M14 melanoma
HL-60(TB) leukemia = tested on: HL-60(TB) leukemia
MOLT-4 leukemia = tested on: MOLT-4 leukemia
HOP-62 NSCLC = tested on: HOP-62 NSCLC
NCI-H460 NSCLC = tested on: NCI-H460 NSCLC
NCI-H226 lung = tested on: NCI-H226 lung
LOX IMVI melanoma = tested on: LOX IMVI melanoma
COLO 205 colon = tested on: COLO 205 colon
786-0 renal = tested on: 786-0 renal
NCI-H322M lung = tested on: NCI-H322M lung
HT29 colon = tested on: HT29 colon
SK-MEL-2 melanoma = tested on: SK-MEL-2 melanoma
BT-549 breast = tested on: BT-549 breast
A498 renal = tested on: A498 renal
HOP-92 NSCLC = tested on: HOP-92 NSCLC
SF-268 CNS = tested on: SF-268 CNS
CAKI-1 renal = tested on: CAKI-1 renal
SW-620 colon = tested on: SW-620 colon
OVCAR-4 ovarian = tested on: OVCAR-4 ovarian
HS 578T breast = tested on: HS 578T breast

SMILES: COC(=O)c1ccc([C@H]2c3[nH]c4ccccc4c3C[C@H](C(=O)OC)N2C(=O)CCl)cc1
- GI50 (SR leukemia): < 10 nM
- TGI (SR leukemia): 20.5 nM
- GI50 (HCT-116 colon): 366 nM
- TGI (HCT-116 colon): 1450 nM
- GI50 (UACC-62 melanoma): 19.3 nM
- TGI (UACC-62 melanoma): 41.6 nM
- GI50 (SK-OV-3 ovarian): 158 nM
- TGI (SK-OV-3 ovarian): 299 nM
- GI50 (SK-MEL-5 melanoma): 479 nM
- TGI (SK-MEL-5 melanoma): 1760 nM
- GI50 (OVCAR-3 ovarian): 14.3 nM
- TGI (OVCAR-3 ovarian): 28.8 nM
- GI50 (UO-31 renal): < 10 nM
- TGI (UO-31 renal): < 10 nM
- GI50 (SNB-75 CNS): 18.5 nM
- TGI (SNB-75 CNS): 41.4 nM
- GI50 (NCI-H522 lung): < 10 nM
- TGI (NCI-H522 lung): < 10 nM
- GI50 (EKVX NSCLC): < 10 nM
- TGI (EKVX NSCLC): 22.4 nM
- GI50 (NCI/ADR-RES ovarian): 25.1 nM
- TGI (NCI/ADR-RES ovarian): 102 nM
- GI50 (SF-295 CNS): 103 nM
- TGI (SF-295 CNS): 221 nM
- GI50 (MDA-MB-435 melanoma): 346 nM
- TGI (MDA-MB-435 melanoma): 1570 nM
- GI50 (RXF 393 renal): < 10 nM
- TGI (RXF 393 renal): 15.2 nM
- GI50 (SNB-19 CNS): 1300 nM
- TGI (SNB-19 CNS): 2590 nM
- GI50 (NCI-H23 lung): < 10 nM
- TGI (NCI-H23 lung): 12 nM
- GI50 (KM12 colon): 18.3 nM
- TGI (KM12 colon): 37.8 nM
- GI50 (TK-10 renal): 15.8 nM
- TGI (TK-10 renal): 33.6 nM
- GI50 (T-47D breast): 58.2 nM
- TGI (T-47D breast): 764 nM
- GI50 (DU-145 prostate): 336 nM
- TGI (DU-145 prostate): 1640 nM
- GI50 (MDA-MB-468 breast): < 10 nM
- TGI (MDA-MB-468 breast): 19.5 nM
- GI50 (A549 NSCLC): 119 nM
- TGI (A549 NSCLC): 339 nM
- GI50 (RPMI-8226 leukemia): 14.2 nM
- TGI (RPMI-8226 leukemia): 28.4 nM
- GI50 (ACHN renal): < 10 nM
- TGI (ACHN renal): < 10 nM
- GI50 (SN12C renal): 466 nM
- TGI (SN12C renal): 1830 nM
- GI50 (OVCAR-8 ovarian): 66.5 nM
- TGI (OVCAR-8 ovarian): 248 nM
- GI50 (CCRF-CEM leukemia): < 10 nM
- TGI (CCRF-CEM leukemia): 15 nM
- GI50 (M14 melanoma): 51.2 nM
- TGI (M14 melanoma): 216 nM
- GI50 (HL-60(TB) leukemia): < 10 nM
- TGI (HL-60(TB) leukemia): 10.2 nM
- GI50 (MOLT-4 leukemia): 15.5 nM
- TGI (MOLT-4 leukemia): 29.4 nM
- GI50 (HOP-62 NSCLC): 10.7 nM
- TGI (HOP-62 NSCLC): 35.5 nM
- GI50 (NCI-H460 NSCLC): 574 nM
- TGI (NCI-H460 NSCLC): 1940 nM
- GI50 (NCI-H226 lung): 75.1 nM
- TGI (NCI-H226 lung): 449 nM
- GI50 (LOX IMVI melanoma): < 10 nM
- TGI (LOX IMVI melanoma): < 10 nM
- GI50 (COLO 205 colon): 238 nM
- TGI (COLO 205 colon): 1150 nM
- GI50 (786-0 renal): 10.4 nM
- TGI (786-0 renal): 25 nM
- GI50 (NCI-H322M lung): 1140 nM
- TGI (NCI-H322M lung): 2420 nM
- GI50 (HT29 colon): 227 nM
- TGI (HT29 colon): 707 nM
- GI50 (SK-MEL-2 melanoma): 51.7 nM
- TGI (SK-MEL-2 melanoma): 185 nM
- GI50 (BT-549 breast): 120 nM
- TGI (BT-549 breast): 246 nM
- GI50 (A498 renal): 20.5 nM
- TGI (A498 renal): 43.8 nM
- GI50 (HOP-92 NSCLC): < 10 nM
- TGI (HOP-92 NSCLC): < 10 nM
- GI50 (SF-268 CNS): 19.5 nM
- TGI (SF-268 CNS): 42.3 nM
- GI50 (CAKI-1 renal): < 10 nM
- TGI (CAKI-1 renal): < 10 nM
- GI50 (SW-620 colon): 199 nM
- TGI (SW-620 colon): 504 nM
- GI50 (OVCAR-4 ovarian): < 10 nM
- TGI (OVCAR-4 ovarian): < 10 nM
- GI50 (HS 578T breast): 131 nM
- TGI (HS 578T breast): 311 nM
